According to patent US20130183239A1, “ISOTOPIC CARBON CHOLINE ANALOGS” (IMPERIAL COLLEGE, priority 2010, published 2013):

System: prostate adenocarcinoma PC3-M tumors
Design: AUC: unit not given beside the values
Experimental: Dynamic ^11C-choline, ^11C-D4-choline and ^18F-D4-choline imaging scans were carried out on a dedicated small animal PET scanner (Siemens Inveon PET module, Siemens Medical Solutions USA, Inc., Malvem, Pa., USA) following a bolus i.v. injection in tumor-bearing mice of either ˜3.7 MBq for ^18F studies, or ˜18.5 MBq for ^11C. Dynamic scans were acquired in list mode format over 60 min. The acquired data were then sorted into 0.5 mm sinogram bins and 19 time frames for image reconstruction (4×15 s, 4×60 s, and 11×300 s), which was done by filtered back projection. For input function analysis, data were sorted into 25 time frames for image reconstruction (8×5 s, 1×20 s, 4×40 s, 1×80 s, and 11×300 s). The Siemens Inveon Research Workplace software was used for visualization of radiotracer uptake in the tumor; 30 to 60 min cumulative images of the dynamic data were employed to define 3-dimensional (3D) regions of interest (ROIs). Arterial input function was estimated as follows: a single voxel 3D ROI was manually drawn in the center of the heart cavity using 2 to 5 min cumulative images. Care was taken to minimize ROI overlap with the myocardium. The count densities were averaged for all ROIs at each time point to obtain a time versus radioactivity curve (TAC). Tumor TACs were normalized to injected dose, measured by a VDC-304 dose calibrator (Veenstra Instruments, Joure, The Netherlands), and expressed as percentage injected dose per mL tissue. The area under the TAC, calculated as the integral of % ID/mL from 0-60 min, and the normalized uptake of radiotracer at 60 min (% ID/mL60) were also used for comparisons.
For PET imaging, tumors were grown to 100 mm^3 prior to imaging.
A 2-tissue irreversible compartmental model was employed to fit the TACs, as has been previously established for ^11C-choline (Kenny L M, Contractor K B, Hinz R, et al. Reproducibility of [11C]choline-positron emission tomography and effect of trastuzumab. Clin Cancer Res. Aug. 15 2010; 16(16):4236-4245; and Sutinen E, Nurmi M, Roivainen A, et al. Kinetics of [(11)C]choline uptake in prostate cancer: a PET study. Eur J Nucl Med Mol. Imaging. March 2004; 31(3):317-324). An estimate of the whole blood TAC (wbTAC(t)) was derived from the PET image itself, as described above. […] Therefore it was fitted with a sum of 3 exponentials from the peak on and the fitted function was used as input function in the kinetic modeling (after metabolite correction, see below). […] The pf values were fitted to a sum of two exponentials with the constraint pf(t=0)=1 to obtain the function pf(t). The parent whole blood TAC wbTACPAR(t) was then computed by multiplying wbTAC(t) and pf(t) and used as input function to estimate the parameters K1 (mL/cm^3/min), k2 (1/min), k3 (1/min) and Vb (unitless). The steady state net irreversible uptake rate constant Ki (mL/cm^3/min) was calculated from the estimated microparameters as K1k3/(k2+k3).

[1] = PC3-M tumors, 2-tissue irreversible model

Question: With [2H]C([2H])(O)C([2H])([2H])[N+](C)(C)C[18F] [[^18F]D4-FCH, [^18F]fluoromethyl-[1,2-^2H4]-choline] as the molecule, how does the “K1′” value [1] read?
Answer: The value was 0.090 ± 0.007.

Question: What about the Ki [1] of the same molecule?
Answer: The Ki was 0.009 ± 0.002 mL/cm^3/min.

Question: And the k3 [1]?
Answer: Its k3 is 0.040 ± 0.006 min⁻¹.

Question: What about the AUC (mouse, in vivo) of the same molecule?
Answer: Its AUC is 121.3 ± 3.1.

Question: What about the NUV60 (mouse, in vivo) of the same molecule?
Answer: The NUV60 was 1.97 ± 0.07 % ID/mL.

Question: And the “increase in % ID/mLmax, smaller versus larger tumors” value (mouse, in vivo)?
Answer: Its value is 1.4 fold.

Question: What about the “increase in normalized uptake at 60 min, smaller versus larger tumors” value (mouse, in vivo) of the same molecule?
Answer: The value was 2.4 fold.

Question: What about the “time to maximal tumor-specific radioactivity” value (mouse, in vivo) of the same molecule?
Answer: The value was ≤ 5 min.
